In this test the test system is HCT 116 cells. The test is described as follows: Viability assay in HCT 116 cells (CellTiter-Glo Luminescent Cell Viability Assay). It counts as cell-based. Conditions: HCT 116 human colon carcinoma cells, 5 days (120 h) incubation, 10 concentrations 30 μM to 0.0015 μM, ATP luminescence. The protocol: Viability Assay in HCT 116 Cells
A viability assay was performed using the CellTiter-Glo® Luminescent Cell Viability Assay (see Promega Corporation's Technical Bulletin No. 288, pp. 1-11 [revised February 2004] which is hereby incorporated by reference in its entirety). This assay is a homogeneous method of determining the number of viable cells in culture based on quantitation of the ATP present, an indicator of metabolically active cells. The assay is designed for use with multiwell formats, making it ideal for automated high-throughput screening (HTS), cell proliferation and cytotoxicity assays. The homogeneous assay procedure involves adding a single reagent (containing luciferase, luciferan substrate, and buffer) directly to cells cultured in serum-supplemented medium. Cell washing, removal of medium and multiple pipetting steps are not required. The system detects as few as 15 cells/well in a 384-well format in 10 minutes after adding reagent and mixing.
The homogeneous “add-mix-measure” format results in cell lysis and generation of a luminescent signal proportional to the amount of ATP present. The amount of ATP is directly proportional to the number of cells present in culture. The above-referenced assay generates a “glow-type” luminescent signal, produced by the luciferase reaction, which has a half-life generally greater than five hours, depending on cell type and medium used. The extended half-life eliminates the need to use reagent injectors and provides flexibility for continuous or batch mode processing of multiple plates. The unique homogeneous format avoids errors that may be introduced by other ATP measurement methods that require multiple steps.
HCT 116 cells (human colon carcinoma, ATCC-No. CCl-247) were cultivated in RPMI 1640 medium with GlutaMAX™ I (cell culture media that contains L-Alanyl-L-Glutamine [a stabilized form/source of L-Glutamine] from Invitrogen, Cat-No. 61870-010), 5% Fetal Calf Serum (FCS, Sigma Cat-No. F4135 (FBS)); 100 Units/ml penicillin/100 μg/ml streptomycin (=Pen/Strep from Invitrogen Cat. No. 15140). For the assay the cells were seeded in 384 well plates, 1000 cells per well, in the same medium. The next day the test compounds were added in various concentrations ranging from 30 μM to 0.0015 μM (10 concentrations, 1:3 diluted). After 5 days the viability assay was performed according to the instructions of the manufacturer. In brief: the cell-plate was equilibrated to room temperature for approximately 30 minutes and then the reagent (containing luciferase, luciferan substrate, and buffer) was added. The contents were carefully mixed for 15 minutes to induce cell lysis. After 45 minutes the luminescent signal was measured in Victor 2, (scanning multiwell spectrophotometer, Wallac).
1st. Day: • Medium: RPMI 1640 with GlutaMAX™ I (Invitrogen, Cat-No. 61870), 5% FCS (Sigma Cat.-No. F4135), Pen/Strep (Invitrogen, Cat No. 15140). • HCT116 (ATCC-No. CCl-247): 1000 cells in 60 μl per well of 384 well plate (Greiner 781098, μClear-plate white) • After seeding incubate plates 24 h at 37° C., 5% CO2
2nd. Day: Induction (Treatment with Compounds, 10 Concentrations):
In order to achieve a final concentration of 30 μM as highest concentration 3.5 μl of 10 mM compound stock solution were added directly to 163 μl media. Then step e) of the dilution procedure described below, was followed.
Background: ATP-based viability assays read luminescence as a measure of living cells.

One may read the IC50 as the concentration that gives 50% inhibition. With `O=C(NS(=O)(=O)c1ccc(N2CCCCCC2)nc1)c1ccc(F)cc1C(F)(F)F` [Example 1-78, 6-Azepan-1-yl-pyridine-3-sulfonic acid 4-fluoro-2-trifluoromethyl-benzoylamide], the concentration for half-maximal inhibition (IC50) was 1 to 16 µM.

`O=C(NS(=O)(=O)c1ccc(N2CCSCC2)nc1)c1ccc(F)cc1C(F)(F)F` [Example 1-80, 6-Thiomorpholin-4-yl-pyridine-3-sulfonic acid 4-fluoro-2-trifluoromethyl-benzoylamide] registered an IC50 of 1 to 16 µM.

The values are drawn from patent US7625896B2, “Pyridylsulfonamide derivatives” (Hoffman-La Roche Inc., priority 2005, dated 2009).
